Tests used:
B. subtilis 168 [1] = test: Bliss interaction score (quartile over a dose matrix) (fitness difference); higher = more antagonism (negative = synergy)
Summary of the method: (§1)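 Combination data were used to infer fitness under each single drug. Fitness is the OD595 at entry into stationary phase divided by the robust mean of the plate's no-drug wells, with a cap of 1. The Bliss score is the observed minus the expected product fitness, summarised by quartiles over technical, biological and donor/recipient replicates.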

S. pneumoniae D39V [2] = test: as above
Summary of the method: as §1

S. aureus Newman [3] = test: as above
Summary of the method: as §1

S. aureus DSM 20231 = test: as above
Summary of the method: as §1

S. aureus Newman [4] = test: fitness (endpoint OD595 vs no drug) (fraction); higher = more growth
Summary of the method: (§2)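 With the first reading as background, OD595 was measured every 30 min for 14 h in 384-well plates kept at 37 °C and inoculated at OD595 0.01. TSB, LB Lennox or CY was the medium. Fitness is the optical density at the transition into stationary phase divided by the robust mean of no-drug control wells, with a cap of 1.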

S. pneumoniae D39V [5] = test: as above
Summary of the method: as §2

B. subtilis 168 [6] = test: as above; settings: main component drawn
Summary of the method: as §2
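Wherever Bliss interaction score (quartile over a dose matrix) is given: first quartile when negative (synergy) and third quartile when positive (antagonism).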

CC[C@H]1OC(=O)[C@H](C)[C@@H](O[C@H]2C[C@@](C)(OC)[C@@H](O)[C@H](C)O2)[C@H](C)[C@@H](O[C@@H]2O[C@H](C)C[C@H](N(C)C)[C@H]2O)[C@](C)(O)C[C@@H](C)CN(C)[C@H](C)[C@@H](O)[C@]1(C)O [Azithromycin] + C/C(=C\C(=O)OCCCCCCCCC(=O)O)C[C@@H]1OC[C@H](C[C@@H]2O[C@H]2[C@@H](C)[C@H](C)O)[C@@H](O)[C@H]1O [Pseudomonic acid]
Settings | Bliss interaction score
B. subtilis 168 [1] | -0.0541
S. aureus DSM 20231 | -0.0221
S. aureus Newman [3] | -0.0303
S. pneumoniae D39V [2] | -0.0833

fitness, S. aureus Newman [4], one replicate
Settings | first compound 0.125 µg/mL | first compound 0.25 µg/mL | first compound 0.5 µg/mL
partner 0.0313 µg/mL | 0.0547 | 0.0237 | 0
partner 0.0625 µg/mL | 0.0262 | 0.0139 | 0.0154
partner 0.125 µg/mL | 0.0288 | 0.0141 | 0.0119

CC1=C(C(=O)O)N2C(=O)[C@@H](NC(=O)[C@H](N)c3ccccc3)[C@H]2SC1 [Cephalexin] + C/C(=C\C(=O)OCCCCCCCCC(=O)O)C[C@@H]1OC[C@H](C[C@@H]2O[C@H]2[C@@H](C)[C@H](C)O)[C@@H](O)[C@H]1O [Pseudomonic acid]
Settings | Bliss interaction score
B. subtilis 168 [1] | 0.0311
S. aureus DSM 20231 | 0.0119
S. aureus Newman [3] | 0.0223
S. pneumoniae D39V [2] | 0.154

fitness, one replicate
Settings | first compound 0.125 µg/mL | first compound 0.25 µg/mL | first compound 0.5 µg/mL | first compound 1 µg/mL | first compound 2 µg/mL
S. aureus Newman [4], partner 0.0313 µg/mL | – | – | 0.0692 | 0.0733 | 0.0904
S. aureus Newman [4], partner 0.0625 µg/mL | – | – | 0.036 | 0.0347 | 0.0466
S. aureus Newman [4], partner 0.125 µg/mL | – | – | 0.0496 | 0.0429 | 0.049
S. pneumoniae D39V [5], partner 0.03 µg/mL | 0.933 | 0.958 | ≥ 1 | – | –
S. pneumoniae D39V [5], partner 0.06 µg/mL | 0.733 | 0.828 | 0.893 | – | –
S. pneumoniae D39V [5], partner 0.12 µg/mL | 0.45 | 0.559 | 0.616 | – | –

fitness, S. pneumoniae D39V [5]
Settings | first compound 1 µg/mL | first compound 2 µg/mL | first compound 4 µg/mL
partner 0.03 µg/mL | 0.67 | – | 0.0998
partner 0.06 µg/mL | 0.6 | – | 0.123
partner 0.12 µg/mL | 0.38 | 0.215 | 0.122

CC1=C(C(=O)O)N2C(=O)[C@@H](NC(=O)[C@H](N)c3ccccc3)[C@H]2SC1 [Cephalexin] + CCCCCCCCCC(=O)N[C@@H]1[C@H]([C@@H]([C@H](O[C@H]1OC2=C3C=C4C=C2OC5=C(C=C(C=C5)[C@H]([C@H]6C(=O)N[C@@H](C7=C(C(=CC(=C7)O)OC8[C@H]([C@H]([C@@H]([C@H](O8)CO)O)O)O)C9=C(C=CC(=C9)[C@H](C(=O)N6)NC(=O)[C@@H]4NC(=O)[C@@H]1C2=CC(=CC(=C2)OC2=C(C=CC(=C2)[C@H](C(=O)N[C@H](CC2=CC(=C(O3)C=C2)Cl)C(=O)N1)N)O)O)O)C(=O)O)O[C@H]1[C@@H]([C@H]([C@@H]([C@H](O1)CO)O)O)NC(=O)C)Cl)CO)O)O [Teicoplanin]
main component drawn
Settings | Bliss interaction score
B. subtilis 168 [1] | 0.0688
S. aureus DSM 20231 | 0.0334
S. aureus Newman [3] | 0.0429
S. pneumoniae D39V [2] | 0.0339

fitness, S. aureus Newman [4], main component drawn
Settings | first compound 0.25 µg/mL | first compound 0.5 µg/mL | first compound 1 µg/mL
partner 0.1562 µg/mL | ≥ 1 | ≥ 1 | ≥ 1
partner 0.3125 µg/mL | ≥ 1 | ≥ 1 | ≥ 1
partner 0.625 µg/mL | ≥ 1 | ≥ 1 | ≥ 1

fitness, S. aureus Newman [4], one replicate, main component drawn
Settings | first compound 0.5 µg/mL | first compound 1 µg/mL | first compound 2 µg/mL
partner 0.62 µg/mL | 0.827 | 0.855 | 0.847
partner 1.24 µg/mL | 0.77 | 0.796 | 0.739
partner 2.48 µg/mL | 0.565 | 0.498 | 0.587

CNC(C)C1CCC(N)C(OC2C(N)CC(N)C(OC3OCC(C)(O)C(NC)C3O)C2O)O1 (configuration not stated) [Gentamicin] + CCCCCCCCCC(=O)N[C@@H]1[C@H]([C@@H]([C@H](O[C@H]1OC2=C3C=C4C=C2OC5=C(C=C(C=C5)[C@H]([C@H]6C(=O)N[C@@H](C7=C(C(=CC(=C7)O)OC8[C@H]([C@H]([C@@H]([C@H](O8)CO)O)O)O)C9=C(C=CC(=C9)[C@H](C(=O)N6)NC(=O)[C@@H]4NC(=O)[C@@H]1C2=CC(=CC(=C2)OC2=C(C=CC(=C2)[C@H](C(=O)N[C@H](CC2=CC(=C(O3)C=C2)Cl)C(=O)N1)N)O)O)O)C(=O)O)O[C@H]1[C@@H]([C@H]([C@@H]([C@H](O1)CO)O)O)NC(=O)C)Cl)CO)O)O [Teicoplanin]
main component drawn
Settings | Bliss interaction score
B. subtilis 168 [1] | -0.13
S. aureus DSM 20231 | -0.0694
S. aureus Newman [3] | -0.0337
S. pneumoniae D39V [2] | 0.0694

fitness, S. aureus Newman [4], one replicate, main component drawn
Settings | first compound 0.375 µg/mL | first compound 0.75 µg/mL | first compound 1 µg/mL | first compound 1.5 µg/mL | first compound 2 µg/mL | first compound 4 µg/mL
partner 0.1562 µg/mL | ≥ 1 | ≥ 1 | – | ≥ 1 | – | –
partner 0.3125 µg/mL | ≥ 1 | ≥ 1 | – | ≥ 1 | – | –
partner 0.62 µg/mL | – | – | 0.748 | – | 0.37 | 0.0704
partner 0.625 µg/mL | 0.861 | 0.851 | – | 0.875 | – | –
partner 1.24 µg/mL | – | – | 0.616 | – | 0.0206 | 0.0307
partner 2.48 µg/mL | – | – | 0.0707 | – | 0.0793 | 0.0765

fitness, S. aureus Newman [4], main component drawn
Settings | first compound 0.5 µg/mL | first compound 1 µg/mL | first compound 2 µg/mL
partner 0.1562 µg/mL | ≥ 1 | ≥ 1 | ≥ 1
partner 0.3125 µg/mL | ≥ 1 | ≥ 1 | ≥ 1
partner 0.625 µg/mL | ≥ 1 | ≥ 1 | ≥ 1

CNC(C)C1CCC(N)C(OC2C(N)CC(N)C(OC3OCC(C)(O)C(NC)C3O)C2O)O1 (configuration not stated) [Gentamicin] + CCC[C@@H]1C[C@@H](C(=O)N[C@@H]([C@H]2O[C@H](SC)[C@H](O)[C@@H](O)[C@H]2O)[C@@H](C)O)N(C)C1 [Lincomycin]
main component drawn
Settings | Bliss interaction score
B. subtilis 168 [1] | 0.1
S. aureus DSM 20231 | 0.106
S. aureus Newman [3] | 0.0735
S. pneumoniae D39V [2] | -0.0859

fitness, B. subtilis 168 [6]
Settings | partner 0.1 µg/mL | partner 0.2 µg/mL | partner 0.4 µg/mL
first compound 0.0625 µg/mL | 0.851 | 0.858 | 0.911
first compound 0.25 µg/mL | 0.038 | 0.0459 | 0.121

fitness
Settings | partner 0.2 µg/mL | partner 0.215 µg/mL | partner 0.4 µg/mL | partner 0.43 µg/mL | partner 0.8 µg/mL | partner 0.86 µg/mL | partner 1.6 µg/mL
B. subtilis 168 [6], first compound 0.0625 µg/mL, one replicate | – | – | – | – | 0.989 | – | 0.921
B. subtilis 168 [6], first compound 0.125 µg/mL, one replicate | – | – | – | – | 0.881 | – | 0.895
B. subtilis 168 [6], first compound 0.25 µg/mL, one replicate | – | – | – | – | 0.32 | – | 0.367
S. pneumoniae D39V [5], first compound 2 µg/mL, main component drawn | 0.465 | 0.858 | 0.285 | 0.795 | 0.0324 | 0.558 | –
S. pneumoniae D39V [5], first compound 4 µg/mL, main component drawn | 0.455 | 0.843 | 0.257 | 0.716 | 0.0339 | 0.397 | –
S. pneumoniae D39V [5], first compound 8 µg/mL, main component drawn | 0.389 | 0.834 | 0.212 | 0.741 | 0.0377 | 0.41 | –

CNC(C)C1CCC(N)C(OC2C(N)CC(N)C(OC3OCC(C)(O)C(NC)C3O)C2O)O1 (configuration not stated) [Gentamicin] + CN(C)C(=O)C(CCN1CCC(O)(c2ccc(Cl)cc2)CC1)(c1ccccc1)c1ccccc1 [Loperamide]
main component drawn
Settings | Bliss interaction score
B. subtilis 168 [1] | -0.159
S. aureus DSM 20231 | 0.0997
S. aureus Newman [3] | 0.0802
S. pneumoniae D39V [2] | 0.0792

fitness, B. subtilis 168 [6]
Settings | first compound 0.0625 µg/mL | first compound 0.125 µg/mL | first compound 0.25 µg/mL
partner 25 µg/mL | – | 0.0373 | 0.0438
partner 50 µg/mL | – | 0.0589 | 0.0483
partner 100 µg/mL | 0.0528 | 0.0432 | 0.0409

fitness, S. pneumoniae D39V [5], main component drawn
Settings | partner 17.14 µg/mL | partner 20 µg/mL | partner 34.28 µg/mL | partner 40 µg/mL | partner 80 µg/mL
first compound 2 µg/mL | 0.968 | ≥ 1 | 0.967 | 0.994 | 0.193
first compound 4 µg/mL | ≥ 1 | ≥ 1 | 0.98 | ≥ 1 | –
first compound 8 µg/mL | 0.984 | ≥ 1 | 0.916 | ≥ 1 | –

S. pneumoniae D39V [5], partner 68.57 µg/mL, one replicate, main component drawn
Settings | fitness
first compound 2 µg/mL | ≥ 1
first compound 4 µg/mL | 0.924
first compound 8 µg/mL | 0.937

CNC(C)C1CCC(N)C(OC2C(N)CC(N)C(OC3OCC(C)(O)C(NC)C3O)C2O)O1 (configuration not stated) [Gentamicin] + C[C@H]1COc2c(N3CCN(C)CC3)c(F)cc3c(=O)c(C(=O)O)cn1c23 [Levofloxacin]
main component drawn
Settings | Bliss interaction score
B. subtilis 168 [1] | -0.0837
S. aureus DSM 20231 | 0.0527
S. aureus Newman [3] | 0.0894
S. pneumoniae D39V [2] | -0.123

fitness
Settings | partner 0.001 µg/mL | partner 0.0078 µg/mL | partner 0.1725 µg/mL | partner 0.2 µg/mL | partner 0.345 µg/mL | partner 0.4 µg/mL | partner 0.69 µg/mL | partner 0.8 µg/mL
B. subtilis 168 [6], first compound 0.0625 µg/mL, one replicate | 0.868 | 0.98 | – | – | – | – | – | –
B. subtilis 168 [6], first compound 0.125 µg/mL, one replicate | 0.126 | 0.977 | – | – | – | – | – | –
B. subtilis 168 [6], first compound 0.25 µg/mL, one replicate | 0.0524 | 0.259 | – | – | – | – | – | –
S. pneumoniae D39V [5], first compound 2 µg/mL, main component drawn | – | – | 0.98 | 0.901 | 0.914 | 0.75 | 0.636 | 0.213
S. pneumoniae D39V [5], first compound 4 µg/mL, main component drawn | – | – | 0.972 | 0.874 | 0.902 | 0.723 | 0.625 | 0.21
S. pneumoniae D39V [5], first compound 8 µg/mL, main component drawn | – | – | 0.98 | 0.865 | 0.912 | 0.671 | 0.438 | 0.179

fitness, B. subtilis 168 [6]
Settings | partner 0.002 µg/mL | partner 0.0039 µg/mL | partner 0.0312 µg/mL | partner 0.0625 µg/mL | partner 0.125 µg/mL
first compound 0.0625 µg/mL | 0.89 | 0.89 | 0.0381 | 0.0442 | 0.0374
first compound 0.125 µg/mL | – | – | 0.0387 | 0.046 | 0.0388
first compound 0.25 µg/mL | 0.206 | 0.163 | 0.0407 | 0.0447 | 0.0485
